Earlier results in patent publication US10278642B2, “Methods of assessing metabolic function” (Aurum Biosciences Limited, priority 2012, dated 2019).

Details: by 100 ml of the liquid at standard pressure and temperature

## FC1(F)C(F)(F)C(F)(F)C2(F)C(F)(F)C(F)(F)C(F)(F)C(F)(F)C2(F)C1(F)F (stereo not shown) [perfluorodecalin]
  oxygen dissolved: 49 mL
